In US8791132B2, “Compounds and methods for treatment of hypertension” (Medivation Technologies, Inc., priority 2011, dated 2014):
Where two headings read alike, the source gives them in different places. Values belong to the compound of their own block, whether it stands above or below them.

Assays:
[1] = target: T1, rat adrenergic α1B receptor (Rattus norvegicus, UniProt P15823); assay: Radioligand binding, adrenergic α1B ([3H]Prazosin)
T1 construct: rat adrenergic α1B receptor obtained from Wistar Rat liver; from tissue; host or cells: Wistar rat liver
T1 sequence (P15823 1-515): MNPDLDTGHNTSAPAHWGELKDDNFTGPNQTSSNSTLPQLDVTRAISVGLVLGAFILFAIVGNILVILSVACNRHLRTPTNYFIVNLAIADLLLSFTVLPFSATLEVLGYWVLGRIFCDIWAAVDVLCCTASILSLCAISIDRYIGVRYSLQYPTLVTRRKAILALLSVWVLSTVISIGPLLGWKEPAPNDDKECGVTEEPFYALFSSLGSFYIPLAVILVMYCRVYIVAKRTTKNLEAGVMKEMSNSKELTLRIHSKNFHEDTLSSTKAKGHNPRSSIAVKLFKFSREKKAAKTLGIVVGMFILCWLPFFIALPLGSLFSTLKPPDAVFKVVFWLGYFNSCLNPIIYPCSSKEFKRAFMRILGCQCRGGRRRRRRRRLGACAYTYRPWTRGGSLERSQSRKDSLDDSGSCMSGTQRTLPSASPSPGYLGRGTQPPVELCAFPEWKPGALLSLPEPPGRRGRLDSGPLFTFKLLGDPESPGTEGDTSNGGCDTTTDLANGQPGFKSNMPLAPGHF
Protocol: To evaluate in radioligand binding assays the activity of compounds of the invention, rat adrenergic α1B receptor obtained from Wistar Rat liver (Garcia-S'ainz, J. et al, Biochem. Biophys. Res. Commun. 186:760, 1992; Michel, A. et al, Br. J. Pharmacol. 98:883, 1989) in a modified Tris-HCl buffer (50 mM Tris-HCl buffer, pH 7.4, 0.5 mM EDTA) was used. Compounds of the invention were incubated with 0.25 nM [^3H]Prazosin for 60 min at 25° C. Non-specific binding was estimated in the presence of 10 μM phentolamine. Receptor proteins were filtered and washed, the filters were then counted to determine [^3H]Prazosin specifically bound. […] Compounds of the invention were tested in this biochemical assay and percent inhibition of specific binding was determined. Biochemical assay results are presented as the percent inhibition of specific binding in Table B1.

[2] = target: T2, human recombinant adrenergic α2A receptor (Homo sapiens, UniProt P08913); assay: Radioligand binding, adrenergic α2A ([3H]MK-912)
T2 construct: expressed in transfected cells; host or cells: insect Sf9 cells
T2 sequence (P08913 1-465): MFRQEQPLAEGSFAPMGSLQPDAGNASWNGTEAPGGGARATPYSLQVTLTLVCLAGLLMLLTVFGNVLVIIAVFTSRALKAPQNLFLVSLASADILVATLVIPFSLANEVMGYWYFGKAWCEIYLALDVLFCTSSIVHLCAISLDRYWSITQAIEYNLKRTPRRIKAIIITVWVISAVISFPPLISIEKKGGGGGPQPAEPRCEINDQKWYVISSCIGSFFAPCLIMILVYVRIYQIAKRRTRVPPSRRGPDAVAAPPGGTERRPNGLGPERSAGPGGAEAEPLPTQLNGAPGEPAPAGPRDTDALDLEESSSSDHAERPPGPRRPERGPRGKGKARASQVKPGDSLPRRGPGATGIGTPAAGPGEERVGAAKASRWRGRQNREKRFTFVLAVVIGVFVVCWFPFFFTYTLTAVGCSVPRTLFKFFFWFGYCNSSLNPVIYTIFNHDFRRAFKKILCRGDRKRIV
Protocol: To evaluate in radioligand binding assays the activity of compounds of the invention, human recombinant adrenergic α2A receptor expressed in insect Sf9 cells (Uhlen, S. et al, J. Pharmacol. Exp. Ther. 271:1558, 1994) in a modified Tris-HCl buffer (50 mM Tris-HCl, pH 7.4, 12.5 mM MgCl2, 2 mM EDTA) was used. Compounds of invention were incubated with 1 nM [^3H]MK-912 for 60 min at 25° C. MK912 is (2S-trans)-1,3,4,5′,6,6′,7,12b-octahydro-1′,3′-dimethyl-spiro[2H-benzofuro[2,3-a]quinolizine-2,4′(1′H)-pyrimidin]-2′(3′H)-one hydrochloride. Non-specific binding was estimated in the presence of 10 μM WB-4101 (2-(2,6-Dimethoxyphenoxyethyl)aminomethyl-1,4-benzodioxane hydrochloride). Receptor proteins were filtered and washed, the filters were then counted to determine [^3H]MK-912 specifically bound. […] Compounds of the invention were tested in this biochemical assay and percent inhibition of specific binding was determined. Biochemical assay results are presented as the percent inhibition of specific binding in Table B1.

[3] = target: T3, human recombinant adrenergic α2B receptor (Homo sapiens, UniProt P18089); assay: Radioligand binding, adrenergic α2B ([3H]Rauwolscine); details: for Percentage inhibition of ligand binding, Adrenergic α2B / inhibition at 0.03 µM / Percentage inhibition of ligand binding, Adrenergic α2B (0.03 μM): [3H]Rauwolscine; for Percentage inhibition of ligand binding, Adrenergic α2B / Percentage inhibition of ligand binding, Adrenergic α2B (0.03 μM): 0.03 µM
T3 construct: expressed in transfected cells; host or cells: CHO-K1
T3 sequence (P18089 1-450): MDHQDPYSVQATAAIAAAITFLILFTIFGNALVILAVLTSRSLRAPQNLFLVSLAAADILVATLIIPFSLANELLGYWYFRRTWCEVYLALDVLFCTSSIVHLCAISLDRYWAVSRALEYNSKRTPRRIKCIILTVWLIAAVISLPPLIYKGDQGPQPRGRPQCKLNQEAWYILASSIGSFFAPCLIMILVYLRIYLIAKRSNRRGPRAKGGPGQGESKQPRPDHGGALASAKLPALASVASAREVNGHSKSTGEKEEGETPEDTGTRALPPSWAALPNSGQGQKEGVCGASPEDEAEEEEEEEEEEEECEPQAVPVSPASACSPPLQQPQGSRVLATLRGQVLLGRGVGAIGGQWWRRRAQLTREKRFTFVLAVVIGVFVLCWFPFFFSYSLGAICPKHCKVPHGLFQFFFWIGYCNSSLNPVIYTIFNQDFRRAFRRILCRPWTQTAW
Protocol: To evaluate in radioligand binding assays the activity of compounds of the invention, human recombinant adrenergic α2B receptor expressed in Chinese hamster ovary (CHO) K1 cells (Uhlen, S. et al, Eur. J. Pharmacol. 343(1):93, 1998) in a modified Tris-HCl buffer (50 mM Tris-HCl, pH 7.4, 12.5 mM MgCl2, 1 mM EDTA, 0.2% BSA) was used. Compounds of the invention were incubated with 2.5 nM [3H]Rauwolscine for 60 min at 25° C. Non-specific binding was estimated in the presence of 10 μM Prazosin. Receptor proteins were filtered and washed, the filters were then counted to determine [3H]Rauwolscine specifically bound. […] Compounds of the invention were tested in this biochemical assay and percent inhibition of specific binding was determined. Biochemical assay results are presented as the percent inhibition of specific binding in Table B1.

[4] = compound at 0.1 μM, [3H]Prazosin, repeat assays, each datapoint shown, 0.1 µM
[5] = compound at 0.1 μM, [3H]Prazosin, repeat datapoints each shown, 0.1 µM
[6] = compound at 0.03 μM, repeat assays, each datapoint shown
[7] = 0.1 μM compound, read-out: Percentage inhibition of ligand binding, Adrenergic α1B
[8] = read-out: Percentage inhibition of ligand binding, Adrenergic α1B (0.1 μM), compound at 0.1 μM, [3H]Prazosin, repeat datapoints each shown
[9] = read-out: Percentage inhibition of ligand binding, Adrenergic α2B (0.03 μM), compound at 0.03 μM, repeat datapoints each shown
[10] = compound at 0.1 μM, [3H]Prazosin, repeat assays, each datapoint shown, read-out: Percentage inhibition of ligand binding, Adrenergic α1B
[11] = read-out: Percentage inhibition of ligand binding, Adrenergic α2A (0.1 μM), compound at 0.1 μM, [3H]MK-912, repeat datapoints each shown
[12] = compound at 0.03 μM, repeat datapoints each shown
[13] = compound at 0.1 μM, [3H]MK-912, repeat assays, each datapoint shown, 0.1 µM

Percentage inhibition of ligand binding, Adrenergic α1B [1, 4]: 57%
SMILES: Cc1ccc2c(c1)c1c(n2CC(O)c2ccc(F)cc2)CCN(C)C1 (stereo not shown) [30a]

Percentage inhibition of ligand binding, Adrenergic α2A (0.1 μM) ([2]; compound at 0.1 μM, [3H]MK-912, repeat datapoints each shown, 0.1 µM): 8% | Percentage inhibition of ligand binding, Adrenergic α1B (0.1 μM) [1, 5]: 31%
SMILES: Cc1ccc2c(c1)c1c(n2CC(O)c2cn[nH]c2)CCN(C)C1 (single isomer, unassigned) [II-106b]

Percentage inhibition of ligand binding, Adrenergic α2B [3, 6]: 54% | Percentage inhibition of ligand binding, Adrenergic α1B [1, 4]: 4%
SMILES: Cc1ccc2c(c1)c1c(n2CC(OC(=O)C(N)C(C)C)c2ccncc2)CCN(C)C1 (single isomer, unassigned) [25a]

Percentage inhibition of ligand binding, Adrenergic α2B [3, 6]: 75% | Percentage inhibition of ligand binding, Adrenergic α1B [1, 4]: 12%
SMILES: Cc1ccc2c(c1)c1c(n2CC(OC(=O)C(N)C(C)C)c2ccncc2)CCN(C)C1 (single isomer, unassigned) [25b]

Percentage inhibition of ligand binding, Adrenergic α2A (0.1 μM) ([2]; compound at 0.1 μM, [3H]MK-912, repeat datapoints each shown): 6% | Percentage inhibition of ligand binding, Adrenergic α1B (0.1 μM) ([1]; compound at 0.1 μM, [3H]Prazosin, repeat datapoints each shown): 65%
SMILES: Cc1ccc2c(c1)c1c(n2CC(C)(O)c2ccncc2)CCN(C)CC1 (stereo not shown) [II-134b]

inhibition at 0.1 µM ([3]; 0.1 μM compound, read-out: Percentage inhibition of ligand binding, Adrenergic α2B): 27% | Ki ([3]; read-out: Ki α2B): 152 nM | inhibition at 0.1 µM [1, 7]: 5%
SMILES: Cc1ccc2c(c1)c1c(n2CC(C)(O)c2cccnc2)CC[N+](C)([O-])C1 (stereo not shown) [II-105, 1-(2,8-dimethyl-2-oxy-1,2,3,4-tetrahydro-pyrido[4,3-b]indol-5-yl)-2-pyridin-3-yl-propan-2-ol]

inhibition at 0.1 µM [1, 8]: 25%
SMILES: Cc1ccc2c(c1)c1c(n2CC(O)c2cn[nH]c2)CCN(C)C1 (single isomer, unassigned) [II-106a]

inhibition at 0.03 µM [3, 9]: 37% | Percentage inhibition of ligand binding, Adrenergic α1B (0.1 μM) [1, 5]: −2%
SMILES: Cc1cnc2c(c1)c1c(n2CC(N)c2ccc(C#N)cc2)CCN(C)C1 (single isomer, unassigned) [159a]

inhibition at 0.1 µM ([2]; compound at 0.1 μM, [3H]MK-912, repeat assays, each datapoint shown, read-out: Percentage inhibition of ligand binding, Adrenergic α2A): 23% | inhibition at 0.1 µM [1, 10]: 58%
SMILES: Cc1ccc2c(c1)c1c(n2CC(O)c2ccncc2)CN(C)CC1 (stereo not shown) [compound 8]

Percentage inhibition of ligand binding, Adrenergic α2A ([2]; 0.1 μM compound, 0.1 µM): 37% | inhibition at 0.1 µM [1, 7]: 13%
SMILES: CN1CCc2c(n(CC(O)c3ccc(F)c(F)c3)c3ccc(Cl)cc23)CC1 (single isomer, unassigned) [339a]

inhibition at 0.1 µM [2, 11]: 5% | inhibition at 0.1 µM [1, 8]: 7%
SMILES: Cc1ccc2c(c1)c1c(n2CC(c2ccncc2)N(C)C)CCN(C)C1 (stereo not shown) [150b]

Percentage inhibition of ligand binding, Adrenergic α1B (0.1 μM) [1, 5]: 7%
SMILES: Cc1ccc2c(c1)c1c(n2CC(c2ccncc2)N2CCCC2)CCN(C)C1 (single isomer, unassigned) [152b]

inhibition at 0.1 µM [1, 10]: 20%
SMILES: Cc1ccc2c(c1)c1c(n2CC(O)c2ccncc2)C(C)N2CCC1C2 (stereo not shown) [compound 38]

Percentage inhibition of ligand binding, Adrenergic α1B (0.1 μM) [1, 5]: 20%
SMILES: Cc1ccc2c(c1)c1c(n2CC(N=[N+]=[N-])c2ccncc2)CCN(C)C1 (racemic) [V-1a, 5-(2-azido-2-(pyridin-4-yl)ethyl)-2,3,4,5-tetrahydro-2,8-dimethyl-1H-pyrido[4,3-b]indole]

Percentage inhibition of ligand binding, Adrenergic α1B (0.1 μM) [1, 5]: 43%
SMILES: CN1CCc2c(c3cc(Cl)ccc3n2CC(C)(O)c2ccc(C(F)(F)F)nc2)C1 (single isomer, unassigned) [143a]

Percentage inhibition of ligand binding, Adrenergic α2B (0.03 μM) [3, 12]: 71% | inhibition at 0.1 µM [1, 8]: 68%
SMILES: Cc1ccc2c(c1)c1c(n2CC(O)c2ccc(C#N)cc2)CCN(C)C1 (single isomer, unassigned) [142a]

inhibition at 0.1 µM ([2]; 0.1 μM compound, read-out: Percentage inhibition of ligand binding, Adrenergic α2A): 12% | Percentage inhibition of ligand binding, Adrenergic α1B ([1]; 0.1 μM compound): 33%
SMILES: Cc1ccc2c(c1)c1c(n2C(C)C(O)c2ccncc2)CCN(C)C1 (stereo not shown) [II-98a]

Percentage inhibition of ligand binding, Adrenergic α2B (0.03 μM) [3, 12]: 104% | Percentage inhibition of ligand binding, Adrenergic α1B (0.1 μM) [1, 5]: 94%
SMILES: Cc1ccc(CCn2c3c(c4cc(Cl)cnc42)C2CCCN2CC3)cn1 (single isomer, unassigned) [137a]

Percentage inhibition of ligand binding, Adrenergic α2A [2, 13]: 29% | Percentage inhibition of ligand binding, Adrenergic α1B [1, 4]: 73%
SMILES: Cc1ccc2c(c1)c1c(n2CC(O)c2ccc(C(=O)N(C)C)cc2)CCN(C)C1 (single isomer, unassigned) [52b]

Percentage inhibition of ligand binding, Adrenergic α2A [2, 13]: 5% | Percentage inhibition of ligand binding, Adrenergic α1B [1, 4]: 9%
SMILES: Cc1ccc2c(c1)c1c(n2CC(O)c2ccc(C(=O)N(C)C)cc2)CCN(C)C1 (single isomer, unassigned) [52a]

inhibition at 0.03 µM [3, 9]: -2% | inhibition at 0.1 µM [1, 8]: 37%
SMILES: Cc1ccc2c(c1)c1c(n2CC(C)(O)c2ccc(C)nc2)CN(C)CC1 (stereo not shown) [196b]

inhibition at 0.1 µM [1, 10]: 57%
SMILES: CN1CCc2c(n(CC(O)c3ccncc3)c3ccc(Cl)cc23)C1 (stereo not shown) [compound 41]

Percentage inhibition of ligand binding, Adrenergic α1B (0.1 μM) [1, 5]: 69%
SMILES: Cc1ccc2c(c1)c1c(n2CC(O)c2ccncc2)CCN2CCCC12 (stereo not shown) [129b]

inhibition at 0.1 µM [2, 11]: 46% | inhibition at 0.1 µM [1, 8]: 73%
SMILES: Cc1ccc2c(c1)c1c(n2CC(O)c2ccncc2)CCN2CCCC12 (stereo not shown) [129a]

inhibition at 0.03 µM ([3]; compound at 0.03 μM, repeat assays, each datapoint shown, read-out: Percentage inhibition of ligand binding, Adrenergic α2B): 59% | inhibition at 0.1 µM [1, 10]: 35%
SMILES: CN1CCc2c(c3cc(Cl)ccc3n2CC(O)c2cccnc2)C1 (stereo not shown) [compound 7]
